According to patent US9050353B2, “Use of icariin and epimedium flavonoids containing icariin to treat diseases associated with myelin sheath lesion” (Xuanwu Hospital of Capital Medical University, priority 2010, dated 2015):

What was measured:
[1] = system: experimental autoimmune encephalomyelitis (EAE) rat model; assay: Nervous function damage score in EAE rat model; type: in vivo, Lewis rats; details: EAE rats, peak of attack; positive control drug, dose not given; scale 0-6
Experimental: (§1) Preparation of rat model and administration: experimental autoimmune encephalomyelitis (EAE) model is an important tool for studying various human demyelinating diseases of nervous system. In the example, the preparation of EAE rat model was performed by multipoint immunizing female Lewis rats subcutaneously at tail root with a homogenate of spinal cord and cerebral gray matter of Guinea pig as well as complete Freund's adjuvant after emulsification. They were intragastrically administered with Epimedium flavanoids for 3 weeks.
Nervous function test method: the ethological changes of rats were observed by two experimenters using blind method every day. Nervous function damage scoring standard: 0 score, absence of symptom; 1 score, decrease of tail tension, visible evident slight gait awkward; 2 score, double hind limbs weak, walk difficult; 3 score, double hind limbs paralysis; 4 score, double hind limbs paralysis and fore limbs weak; 5 score, four limbs paralysis; 6 score, near death or died.

CNPase [2] = assay: Spinal cord CNPase by Western blot, EAE mice; type: in vivo; details: positive control drug, dose not given
Experimental: (§2) Preparation of mice model and administration: experimental autoimmune encephalomyelitis (EAE) mice model is an important tool for studying various human demyelinating diseases of nervous system. In the present experiment, the preparation of EAE mice model was performed by immunizing female C57BL/6J mice with myelin sheath oligodendroglial cell surface glycoprotein MOG35-55. That is, the mice were subcutaneously injected at dorsal part of spinal column with 0.2 mL of MOG35-55 antigen elixir, and 0.2 ml of bordetella pertussis solution was intraperitoneally injected at the time of immunization injection and 48 h thereafter, respectively. Icariin was intragastrically administered after the last injection of bordetella pertussis solution, for consecutive 3 weeks.
Experimental objective: myelin sheath is formed with prominences of oligodendroglial cells. CNPase, myelin basic protein (MBP) are marker proteins of mature oligodendroglial cells. The present experiment was to observe the expression of CNPase and MBP to represent the content of oligodendroglial cells in spinal cord of EAE model mice by Western blot method; and to study the effects of icariin on it.
Experimental method: the mice were anesthetized and sacrificed, fresh spinal cord was taken on ice, total protein was extracted by cleavage on ice, to prepare Western blot sample, added separately with CNPase, MBP primary antibodies and incubated, added with corresponding secondary antibodies, ECL colorated, Kodak film exposed. Pictures were analyzed with Image J software and standardized with β-actin.

[3] = system: experimental autoimmune encephalomyelitis (EAE) mice model; assay: Nervous function damage score in EAE mice model; type: in vivo, C57BL/6J mice; details: peak of attack, positive control drug, dose not given, scale 0-5
Experimental: as §2
Nervous function test method: the ethological changes of mice were observed by two experimenters every day using blind method. Scoring standard: 0 score, absence of symptom; 1 score, decrease of tail tension, evident slight gait awkward; 2 score, disappearance of tail tension, moderate gait abnormal, deficient in maintaining gesture; 3 score, limb strength weak; 4 score, limb paralysis; 5 score, near death or died.

CNPase [4] = assay: Cerebral cortex CNPase content by Western blot, EAE rats; type: in vivo; details: positive control drug, dose not given
Experimental: as §1
Experimental objective: myelin sheath is formed with prominences of oligodendroglial cells. […] In this experiment, CNPase content of cerebral cortex in EAE rat model was measured by Western blot method, CNPase content of spinal cord lumbar intumescentia was measured by immunohistochemical method; and the effects of Epimedium flavanoids on these contents were observed.
Experimental method: rats were anesthetized and sacrificed, cerebral cortex was taken, total protein was extracted by ice cleavage for making Western blot sample, added with CNPase primary antibody and incubated, added with corresponding secondary antibody, ECL colorated, Kodak film exposed. Pictures were analyzed by Image J software and standardized with β-actin (as internal reference).

[5] = system: nitric-oxide synthase (NOS); assay: NOS activity of cerebral cortex, biochemical kit, EAE rats; type: in vivo; details: positive control drug, dose not given
Experimental: as §1
Experimental objective: nitric-oxide synthase (NOS) catalyzes the generation of nitric oxide (NO). During inflammatory reaction, the activity of induced NOS increases, excess NO are generated and oxygen radicals are generated via oxidation, which may result in damages in nerve cells and myelin sheath. In this experiment, NOS activity and NO content were measured using biochemical kits in cerebral cortex of EAE rat model, and the effects of Epimedium flavanoids on changes thereof were observed. […]

[6] = system: Nerve growth factors (NGF); assay: NGF of spinal cord lumbar intumescentia by immunohistochemical method, EAE rats; type: in vivo; details: positive control drug, dose not given
Experimental: as §1
Experimental objective: neurotrophic factors are important substances for constituting nerve regeneration microenvironment. Nerve growth factors (NGF) are important neurotrophic factors, can promote the regeneration and plerosis of nerve cells and myelin sheath. In this experiment, NGF content of spinal cord lumbar intumescentia in EAE rat model was measured by immunohistochemical method, and the effects of Epimedium flavanoids on the content was observed.
Experimental method: the rats were anesthetized with 10% chloral hydrate, fixed by perfusion of 4% paraformaldehyde, spinal cord tissues were taken for frozen section. Incubated with NGF primary antibody, added with corresponding secondary antibody and third antibody, DAB colorated, observed under microscope, and pictures were analyzed using Image Pro plus5.0 software.

CNPase [7] = assay: CNPase positive cells of spinal cord lumbar intumescentia by immunohistochemical method, EAE rats; type: in vivo; details: positive control drug, dose not given
Experimental: as §1
Experimental objective: myelin sheath is formed with prominences of oligodendroglial cells. 2′3′-cyclic […]-3′-phosphodiesterase (CNPase) is a marker protein of mature oligodendroglial cells. In this experiment, CNPase content of cerebral cortex in EAE rat model was measured by Western blot method, CNPase content of spinal cord lumbar intumescentia was measured by immunohistochemical method; and the effects of Epimedium flavanoids on these contents were observed.
Experimental method: the rats were anesthetized with 10% chloral hydrate on the 14th day of experiment, fixed by perfusion of 4% paraformaldehyde, spinal cord tissues were taken for frozen section. […] Pictures were analyzed using Image Pro plus5.0 software to count positive cells.

[8] = system: inflammatory cell infiltration in spinal cord tissues of EAE mice model; assay: Inflammatory cell infiltration in spinal cord, HE staining, EAE mice; type: in vivo; details: positive control drug, dose not given, scale 0-4
Experimental: as §2
Experimental objective: the pathological changes of spinal cord in EAE model, especially inflammatory cell infiltration situations was assayed by hematoxylin-eosin (HE) staining test, and the intervention effects of […] on these pathological changes were observed.
Experimental method: the mice were anesthetized with 10% chloral hydrate on the 28th day of experiment, fixed by perfusion of 4% paraformaldehyde, spinal cord tissues were taken for making paraffin sections, section thickness […]. Stained with HE, observed under microscope, and scored according to the following standard: 0 score, absence of cell infiltration; 1 score, spinal meninge cell infiltration; 2 score, 1 to 4 small ranges of cell infiltration around vessels; 3 score, 5 or more small ranges of cell infiltration around vessels, or one or more accumulatively substantial large range of cell infiltration; 4 score, a large number of cell infiltration ranges accumulatively existing in 20% or more of white matter regions.

CC(=O)OCC(=O)[C@@]1(O)CC[C@H]2[C@@H]3CCC4=CC(=O)C=C[C@]4(C)[C@H]3C(=O)C[C@@]21C [prednisone acetate]
Nervous function damage score [1]: 0.83 ± 0.48
CNPase/actin Integration grey level (CNPase [2]): 1.20 ± 0.01
Nervous function damage score [3]: 0.89 ± 0.28
CNPase/actin Integration grey level (CNPase [4]): 1.33 ± 0.06
NOS activity [5]: 2.44 ± 0.08 U/mg protein
NGF positive cell Accumulative optical density [6]: 11.25 ± 1.67 ×10^5
CNPase positive cell count (CNPase [7]): 1378.2 ± 125.4
Inflammatory cell infiltration (HE staining score) [8]: 1.05 ± 0.13
